For orientation: IC50 means the point on the concentration scale where inhibition reaches its midpoint.

The values that follow come from patent US10221161B2, “Inhibitors of plasma kallikrein” (Kalvista Pharmaceuticals Limited, priority 2013, dated 2019).

One test addresses Human KLK1 (Homo sapiens (Human), UniProt P06870). As to the kind of experiment: Determination of the IC50 for KLK1 (fluorogenic substrate H-DVal-Leu-Arg-AFC). In kind it is biochemical. To be noted: human KLK1, 37° C. As to the method:
Selected compounds were further screened for inhibitory activity against the related enzyme KLK1. The ability of the compounds of formula (I) to inhibit KLK1 may be determined using the following biological assay:
Determination of the IC50 for KLK1
KLK1 inhibitory activity in vitro was determined using standard published methods (see e.g. Johansen et al., Int. J. Tiss. Reac. 1986, 8, 185; Shori et al., Biochem. Pharmacol., 1992, 43, 1209; Stürzebecher et al., Biol. Chem. Hoppe-Seyler, 1992, 373, 1025). Human KLK1 (Callbiochem) was incubated at 37° C. with the fluorogenic substrate H-DVal-Leu-Arg-AFC and various concentrations of the test compound. Residual enzyme activity (initial rate of reaction) was determined by measuring the change in optical absorbance at 410 nm and the IC50 value for the test compound was determined.

In the next test the target is Human plasma kallikrein (Homo sapiens (Human), UniProt P03952). The test is described as follows: Determination of the IC50 for plasma kallikrein (fluorogenic substrate H-DPro-Phe-Arg-AFC). In kind it is biochemical. To be noted: 37° C., read-out: IC50 (human PKal). The method, then:
Determination of the IC50 Plasma Kallikrein Plasma kallikrein inhibitory activity in vitro was determined using standard published methods (see e.g. Johansen et al., Int. J. Tiss. […] Shori et al., Biochem. Pharmacol., 1992, 43, 1209; Stürzebecher et al., Biol. Chem. Hoppe-Seyler, 1992, 373, 1025). Human plasma kallikrein (Protogen) was incubated at 37° C. with the fluorogenic substrate […] and various concentrations of the test compound.

Chain of Human KLK1 (P06870 25-262): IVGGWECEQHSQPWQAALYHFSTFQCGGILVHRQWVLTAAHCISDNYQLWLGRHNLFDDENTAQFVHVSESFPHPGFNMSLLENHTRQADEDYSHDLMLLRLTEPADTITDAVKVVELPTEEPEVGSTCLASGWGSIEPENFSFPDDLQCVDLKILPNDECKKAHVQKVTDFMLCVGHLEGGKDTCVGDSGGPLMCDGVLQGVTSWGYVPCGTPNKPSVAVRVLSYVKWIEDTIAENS
Chain of Human plasma kallikrein (P03952 391-638 limits assumed): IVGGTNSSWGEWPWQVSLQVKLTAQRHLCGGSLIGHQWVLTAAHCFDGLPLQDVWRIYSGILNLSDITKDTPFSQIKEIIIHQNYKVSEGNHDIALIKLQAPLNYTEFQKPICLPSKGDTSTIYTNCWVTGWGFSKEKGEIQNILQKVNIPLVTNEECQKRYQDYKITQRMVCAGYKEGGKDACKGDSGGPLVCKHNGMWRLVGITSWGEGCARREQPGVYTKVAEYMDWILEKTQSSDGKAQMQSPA
Chain of Human plasma kallikrein (P03952 20-390 partner limits assumed): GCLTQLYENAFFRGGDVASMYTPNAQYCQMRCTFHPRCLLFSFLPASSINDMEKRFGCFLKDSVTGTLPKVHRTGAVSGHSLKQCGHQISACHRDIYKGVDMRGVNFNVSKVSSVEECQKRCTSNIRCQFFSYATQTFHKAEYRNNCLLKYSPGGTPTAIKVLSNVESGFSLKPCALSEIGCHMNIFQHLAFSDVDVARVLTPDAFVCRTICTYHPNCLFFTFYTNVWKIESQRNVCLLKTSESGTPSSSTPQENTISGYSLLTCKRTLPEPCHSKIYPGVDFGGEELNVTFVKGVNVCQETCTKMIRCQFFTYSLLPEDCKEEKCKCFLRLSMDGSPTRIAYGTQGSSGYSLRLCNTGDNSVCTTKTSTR

On to `COc1ccc(CN2CCN(Cc3cncc(C(=O)NCc4ccc5c(N)nccc5c4)c3)CC2)cc1` [Example 45, N-[(1-Aminoisoquinolin-6-yl)methyl]-5-({4-[(4-methoxyphenyl)methyl]piperazin-1-yl}methyl)pyridine-3-carboxamide], for which the 50% inhibitory concentration (IC50) against Human KLK1 worked out at 26.9 µM; at Human plasma kallikrein it was 33.6 µM.

For the compound `Nc1nccc2cc(CNC(=O)c3ccc(=O)n(Cc4ccc(Cn5ccccc5=O)cc4)c3)ccc12` [Example 5, N-[(1-Aminoisoquinolin-6-yl)methyl]-6-oxo-1-({4-[(2-oxopyridin-1-yl)methyl]phenyl}methyl)pyridine-3-carboxamide], the IC50 against Human KLK1 was determined as 28.9 µM; on Human plasma kallikrein, 0.0247 µM.

Turning to `Nc1nccc2cc(CNC(=O)c3cncc(Cc4ccc(-n5cccn5)cc4)c3)ccc12` [Example 27, N-[(1-Aminoisoquinolin-6-yl)methyl]-5-{[4-(pyrazol-1-yl)phenyl]methyl}pyridine-3-carboxamide], the IC50 was determined as 12.1 µM on Human KLK1 and 1.01 µM on Human plasma kallikrein.

Consider `Nc1nccc2cc(CNC(=O)c3cncc(Cc4ccnc(N5CCCC5=O)c4)c3)ccc12` [Example 76, N-[(1-Aminoisoquinolin-6-yl)methyl]-5-{[2-(2-oxopyrrolidin-1-yl)pyridin-4-yl]methyl}pyridine-3-carboxamide], for which the values for the concentration for half-maximal inhibition (IC50) against Human KLK1 and at Human plasma kallikrein were 3.75 µM and 0.242 µM, respectively.

On to `Nc1nccc2cc(CNC(=O)c3cncc(CN4CCN(CCc5ccccc5)CC4)c3)ccc12` [Example 51, N-[(1-Aminoisoquinolin-6-yl)methyl]-5-{[4-(2-phenylethyl)piperazin-1-yl]methyl}pyridine-3-carboxamide], for which the figures for the IC50 at Human KLK1 and at Human plasma kallikrein were more than 10 µM and 8.11 µM, respectively.

Take `Nc1nccc2cc(CNC(=O)c3ccc(=O)n(Cc4csc(-c5ccccc5)n4)c3)ccc12` [Example 14, N-[(1-Aminoisoquinolin-6-yl)methyl]-6-oxo-1-[(2-phenyl-1,3-thiazol-4-yl)methyl]pyridine-3-carboxamide]: the IC50 against Human KLK1 is 4.16 µM; at Human plasma kallikrein, 2.67 µM.

Regarding `Nc1nccc2cc(CNC(=O)c3cncc(Cc4ccc5ncccc5c4)c3)ccc12` [Example 31, N-[(1-Aminoisoquinolin-6-yl)methyl]-5-(quinolin-6-ylmethyl)pyridine-3-carboxamide], the concentration for half-maximal inhibition (IC50) against Human KLK1 was found to be 4.13 µM; on Human plasma kallikrein it was 0.144 µM.

In the case of `Cc1ccc2cc(Cc3cnc(C)c(C(=O)NCc4ccc5c(N)nccc5c4)c3)ccc2n1` [Example 22, N-[(1-Aminoisoquinolin-6-yl)methyl]-2-methyl-5-[(2-methylquinolin-6-yl)methyl]pyridine-3-carboxamide], the IC50 on Human KLK1 came to 0.484 µM; at Human plasma kallikrein, 0.104 µM.

Turning to `Nc1nccc2cc(CNC(=O)c3cncc(Cc4ccc5ccncc5c4)c3)ccc12` [Example 28, N-[(1-Aminoisoquinolin-6-yl)methyl]-5-(isoquinolin-7-ylmethyl)pyridine-3-carboxamide], the half-maximal inhibitory concentration (IC50) turned out to be 5.9 µM against Human KLK1 and 1.1 µM on Human plasma kallikrein.

For `Nc1nccc2cc(CNC(=O)c3cncc(Cc4ccnc(N5CCCC5)c4)c3)ccc12` [Example 77, N-[(1-Aminoisoquinolin-6-yl)methyl]-5-{[2-(pyrrolidin-1-yl)pyridin-4-yl]methyl}pyridine-3-carboxamide], the IC50 on Human KLK1 was 4.8 µM; at Human plasma kallikrein, 0.0377 µM.

As for `Cn1cc(CN2CCN(Cc3cncc(C(=O)NCc4ccc5c(N)nccc5c4)c3)CC2)cn1` [Example 47, N-[(1-Aminoisoquinolin-6-yl)methyl]-5-({4-[(1-methylpyrazol-4-yl)methyl]piperazin-1-yl}methyl)pyridine-3-carboxamide], the IC50 against Human KLK1 was more than 40 µM; on Human plasma kallikrein, 40 µM.

Regarding `CC1(C)CCCN1c1ccc(Cc2cncc(C(=O)NCc3ccc4c(N)nccc4c3)c2)cn1` [Example 65, N-[(1-Aminoisoquinolin-6-yl)methyl]-5-{[6-(2,2-dimethylpyrrolidin-1-yl)pyridin-3-yl]methyl}pyridine-3-carboxamide], the half-inhibitory concentration (IC50) was more than 10 µM against Human KLK1 and 0.131 µM on Human plasma kallikrein.

For the compound `Nc1nccc2cc(CNC(=O)c3cncc(CN4CCN(CC5CCCC5)CC4)c3)ccc12` [Example 43, N-[(1-Aminoisoquinolin-6-yl)methyl]-5-{[4-(cyclopentylmethyl)piperazin-1-yl]methyl}pyridine-3-carboxamide], the IC50 against Human KLK1 is 17.9 µM; on Human plasma kallikrein, 11 µM.

For `Nc1nccc2cc(CNC(=O)c3cncc(CN4CCN(CC(=O)O)CC4)c3)ccc12` [Example 52, {4-[(5-{[(1-Aminoisoquinolin-6-yl)methyl]carbamoyl}pyridin-3-yl)methyl]piperazin-1-yl}acetic acid], the values for the 50% inhibitory concentration (IC50) on Human KLK1 and at Human plasma kallikrein were more than 10 µM and 10 µM, respectively.

In the case of `Nc1nccc2cc(CNC(=O)c3cncc(Cc4ccc(N5CCCC5)nc4)c3)ccc12` [Example 55, N-[(1-Aminoisoquinolin-6-yl)methyl]-5-{[6-(pyrrolidin-1-yl)pyridin-3-yl]methyl}pyridine-3-carboxamide], the IC50 worked out at 4.96 µM on Human KLK1 and 0.103 µM at Human plasma kallikrein.

Regarding `COC1CCN(c2cc(Cc3cncc(C(=O)NCc4ccc5c(N)nccc5c4)c3)ccn2)C1` (stereo not drawn) [Example 88, N-[(1-Aminoisoquinolin-6-yl)methyl]-5-{[2-(3-methoxypyrrolidin-1-yl)pyridin-4-yl]methyl}pyridine-3-carboxamide], the results for the half-maximal inhibitory concentration (IC50) on Human KLK1 and on Human plasma kallikrein were 9.85 µM and 0.234 µM, respectively.

On to `Nc1nccc2cc(CNC(=O)c3cncc(CN4CCN(S(=O)(=O)c5ccccc5)CC4)c3)ccc12` [Example 35, N-[(1-Aminoisoquinolin-6-yl)methyl]-5-{[4-(benzenesulfonyl)piperazin-1-yl]methyl}pyridine-3-carboxamide], for which the IC50 on Human KLK1 was found to be 29.8 µM; on Human plasma kallikrein, 3.51 µM.

With `Cc1ccc2cc(Cc3cncc(C(=O)NCc4ccc5c(N)nccc5c4)c3)ccc2n1` [Example 17, N-[(1-Aminoisoquinolin-6-yl)methyl]-5-[(2-methylquinolin-6-yl)methyl]pyridine-3-carboxamide], the figures for the 50% inhibitory concentration (IC50) against Human KLK1 and on Human plasma kallikrein were 1.12 µM and 0.0275 µM, respectively.

For `Nc1nccc2cc(CNC(=O)c3cncc(Cc4ccc(F)nc4)c3)ccc12` [Example 54, N-[(1-Aminoisoquinolin-6-yl)methyl]-5-[(6-fluoropyridin-3-yl)methyl]pyridine-3-carboxamide], the IC50 at Human KLK1 turned out to be 10.7 µM; on Human plasma kallikrein it was 14.6 µM.

For `COc1cc(Cc2cncc(C(=O)NCc3ccc4c(N)nccc4c3)c2)ccc1Cn1cc(C)cn1` [Example 33, N-[(1-Aminoisoquinolin-6-yl)methyl]-5-({3-methoxy-4-[(4-methylpyrazol-1-yl)methyl]phenyl}methyl)pyridine-3-carboxamide], the values for the half-maximal inhibitory concentration (IC50) at Human KLK1 and on Human plasma kallikrein were 17.1 µM and 0.0171 µM, respectively.

Turning to `Nc1nccc2cc(CNC(=O)c3cncc(Cc4ccc(N5CCCCC5)nc4)c3)ccc12` [Example 56, N-[(1-Aminoisoquinolin-6-yl)methyl]-5-{[6-(piperidin-1-yl)pyridin-3-yl]methyl}pyridine-3-carboxamide], the figures for the IC50 against Human KLK1 and at Human plasma kallikrein were more than 40 µM and 0.313 µM, respectively.

For the compound `CN(C)[C@@H]1CCN(c2ccc(Cc3cncc(C(=O)NCc4ccc5c(N)nccc5c4)c3)cn2)C1` (stereo in doubt) [Example 69, N-[(1-Aminoisoquinolin-6-yl)methyl]-5-({6-[3-(dimethylamino)pyrrolidin-1-yl]pyridin-3-yl}methyl)pyridine-3-carboxamide], the IC50 stood at 2.43 µM against Human KLK1 and 0.579 µM at Human plasma kallikrein.

With `CNc1ncc(C(=O)NCc2ccc3c(N)nccc3c2)cc1Cc1ccc2nc(C)ccc2c1` [Example 21, N-[(1-Aminoisoquinolin-6-yl)methyl]-6-(methylamino)-5-[(2-methylquinolin-6-yl)methyl]pyridine-3-carboxamide], the IC50 against Human KLK1 turned out to be 5.99 µM; on Human plasma kallikrein it was 0.0533 µM.

Consider `Cc1cnn(Cc2ccc(Cc3ccnc(C(=O)NCc4ccc5c(N)nccc5c4)c3)cc2)c1` [Example 3, N-[(1-Aminoisoquinolin-6-yl)methyl]-4-({4-[(4-methylpyrazol-1-yl)methyl]phenyl}methyl)pyridine-2-carboxamide], for which the 50% inhibitory concentration (IC50) against Human KLK1 is more than 40 µM; on Human plasma kallikrein, 0.159 µM.

Regarding `CCN(CC)c1ccc(Cc2cncc(C(=O)NCc3ccc4c(N)nccc4c3)c2)cn1` [Example 66, N-[(1-Aminoisoquinolin-6-yl)methyl]-5-{[6-(diethylamino)pyridin-3-yl]methyl}pyridine-3-carboxamide], the IC50 on Human KLK1 was determined as 5.85 µM; on Human plasma kallikrein, 0.0527 µM.

For the compound `Nc1nccc2cc(CNC(=O)c3cncc(Cc4ccc(N5CCCC5=O)nc4)c3)ccc12` [Example 53, N-[(1-Aminoisoquinolin-6-yl)methyl]-5-{[6-(2-oxopyrrolidin-1-yl)pyridin-3-yl]methyl}pyridine-3-carboxamide], the 50% inhibitory concentration (IC50) against Human KLK1 is 3.86 µM; at Human plasma kallikrein, 0.2 µM.

`COc1ccccc1CN1CCN(Cc2cncc(C(=O)NCc3ccc4c(N)nccc4c3)c2)CC1` [Example 42, N-[(1-Aminoisoquinolin-6-yl)methyl]-5-({4-[(2-methoxyphenyl)methyl]piperazin-1-yl}methyl)pyridine-3-carboxamide]: the IC50 was 24.3 µM at Human KLK1 and 1.83 µM at Human plasma kallikrein.
